This is an account of results in patent US10703746B2, “Mutant IDH1 inhibitors useful for treating cancer” (THE UNITED STATES OF AMERICA, AS REPRESENTED BY THE …, priority 2014, dated 2020).

One may read the IC50 as the concentration at which inhibition is half-maximal.

The target of assay [1] is IDH1 R132H (Homo sapiens, UniProt O75874, R132H). The assay is described as follows: IDH1 R132H enzymatic assay (NADPH depletion coupled to diaphorase/resazurin). The assay is classed as biochemical. To be noted: IDH1 R132H enzymatic inhibition, IC50 class. (The colour change of resazurin is a common sign of viable cells or microbes.)
The target of assay [2] is IDH1 R132C (Homo sapiens, UniProt O75874, R132C). The assay is described as follows: IDH1 R132C enzymatic assay (NADPH depletion coupled to diaphorase/resazurin). It counts as biochemical. To be noted: IDH1 R132C enzymatic inhibition, IC50 class. The method in brief:
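NADPH depletion, read via diaphorase/resazurin coupling, after adding substrate at 0.6 mM α-KG and 0.012 mM NADPH. Beforehand, 0.00032 mg/mL enzyme sat with compound 30 min at room temperature in pH 6.5 potassium phosphate buffer with MgCl2, glycerol and BSA.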

Molecules are shown by their SMILES. Bounds are passed on as bounds.

Sequence of IDH1 R132H (O75874 whole entry R132H): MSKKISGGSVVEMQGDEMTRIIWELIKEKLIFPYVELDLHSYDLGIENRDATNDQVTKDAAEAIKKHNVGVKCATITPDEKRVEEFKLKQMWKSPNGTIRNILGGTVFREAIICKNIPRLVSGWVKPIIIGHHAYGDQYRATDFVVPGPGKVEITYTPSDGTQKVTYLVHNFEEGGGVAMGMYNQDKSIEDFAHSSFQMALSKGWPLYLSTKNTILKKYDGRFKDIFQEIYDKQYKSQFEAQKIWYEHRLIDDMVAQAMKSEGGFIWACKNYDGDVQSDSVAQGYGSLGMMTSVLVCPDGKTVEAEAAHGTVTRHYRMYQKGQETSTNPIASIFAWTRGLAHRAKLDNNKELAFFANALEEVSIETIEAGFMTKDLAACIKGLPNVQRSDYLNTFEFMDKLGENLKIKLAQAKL
Sequence of IDH1 R132C (O75874 whole entry R132C): as the sequence (O75874 whole entry R132H) above, with H132C counted along it

On to `CCc1cccc(CC)c1-n1c2c(cc(-c3nc(-c4ccc(Cl)cc4)cs3)c1=O)C(=O)N(C)C2C(C)C` (centres unmarked) [Compound 338], for which the IC50 is 1 to 5 µM in assay [1] and 0.3 to 1 µM in assay [2].

Turning to `O=C1CCCc2c1cc(-c1nc(-c3ccc(Cl)cc3)cs1)c(=O)n2-c1ccccc1CN1CCOCC1` [Compound 339], the IC50 in assay [1] was 5 to 20 µM; in assay [2], 1 to 5 µM.

For `CCc1cccc(CC)c1-n1c(CC(C)C)c(C(=O)N2CCNCC2)cc(-c2nc(-c3ccc(Cl)cc3)co2)c1=O` [Compound 340], the IC50 in assay [1] and in assay [2] was 0.3 to 1 µM in each case.

Regarding `CC(C)=Cc1c(C(=O)N2CCNCC2)cc(-c2nc(-c3ccc(Cl)cc3)cs2)c(=O)n1-c1ccccc1` [Compound 341], the IC50 in assay [1] fell in the range of 0.3 to 1 µM; in assay [2], 1 to 5 µM.

With `Cc1cc(CO)ccc1-n1c2c(cc(-c3nc(-c4ccc(Cl)cc4)cs3)c1=O)C(=O)CCC2` [Compound 342], the IC50 in assay [1] and in assay [2] was 5 to 20 µM each time.

`O=C1CCCc2c1cc(-c1nc(-c3ccc(Cl)cc3)cs1)c(=O)n2-c1ccccc1OCC(F)(F)F` [Compound 343]: the IC50 in assay [1] and in assay [2] was 1 to 5 µM throughout.

In the case of `CCc1cccc(CC)c1-n1c(C=C(C)C)c(C(=O)N2CC3(CCNC3)C2)cc(-c2nc(-c3ccc(Cl)cc3)cs2)c1=O` [Compound 344], the IC50 was 0.3 to 1 µM in assay [1] and under 0.3 µM in assay [2].

Take `CCc1cccc(CC)c1-n1c(C=C(C)C)c(C(=O)N2CCNCC2)cc(-c2nn(-c3ccc(Cl)cc3)cc2Cl)c1=O` [Compound 345]: the IC50 in assay [1] and in assay [2] was 1 to 5 µM in each case.

Take `Cc1cc(C#N)c(-n2c3c(cc(-c4nc(-c5ccc(Cl)cc5)cs4)c2=O)C(=O)CC(C)(C)C3)s1` [Compound 346]: the IC50 in assay [1] and in assay [2] was 0.3 to 1 µM in each case.

For the molecule `CCOC(=O)c1c(O)c(-c2nc(-c3ccc(Cl)cc3)cs2)c(=O)n(-c2c(CC)cccc2CC)c1C` [Compound 347, ethyl 5-(4-(4-chlorophenyl)thiazol-2-yl)-1-(2,6-diethylphenyl)-4-hydroxy-2-methyl-6-oxo-1,6-dihydropyridine-3-carboxylate], the IC50 in assay [1] and in assay [2] was 5 to 20 µM each time.

`CCOc1ccc(OCC)c(-n2c(C=C(C)C)c(C(=O)N3CCNCC3)cc(-c3nc(-c4ccc(Cl)cc4)cs3)c2=O)c1` [Compound 348]: the IC50 in assay [1] and in assay [2] was under 0.3 µM throughout.

In the case of `CCc1cccc(CC)c1-n1c(C=C(C)C)c(C(=O)N2CCNCC2)cc(-c2ccn(-c3ccc(Cl)cc3)n2)c1=O` [Compound 349], the IC50 in assay [1] and in assay [2] was under 0.3 µM each time.

As for `O=C1CCCc2c1cc(-c1nc(-c3ccc(Cl)cc3)cs1)c(=O)n2-c1ccccn1` [Compound 350], the IC50 in assay [1] and in assay [2] was over 20 µM each time.

Regarding `COc1ncc(C2=CCNCC2)cc1-n1c2c(cc(-c3nc(-c4ccc(Cl)cc4)cs3)c1=O)C(=O)CC(C)(C)C2` [Compound 351], the 50% inhibitory concentration (IC50) in assay [1] and in assay [2] was 5 to 20 µM in each case.

In the case of `CCc1ccc(F)cc1-n1c(C=C(C)C)c(C(=O)N2CCNCC2)cc(-c2nc(-c3ccc(Cl)cc3)cs2)c1=O` [Compound 352], the IC50 in assay [1] and in assay [2] was under 0.3 µM throughout.

In the case of `CCOc1ccc(Cl)c(-n2c(C=C(C)C)c(C(=O)N3CCNCC3)cc(-c3nc(-c4ccc(Cl)cc4)cs3)c2=O)c1` [Compound 354], the IC50 in assay [1] and in assay [2] was under 0.3 µM throughout.

Turning to `CCc1cccc(CC)c1N1C(=O)C(c2nc(-c3ccc(Cl)cc3)cs2)CC(C(=O)N2CCNCC2)=C1CC(C)C` (centres unmarked) [Compound 356], the values for the IC50 in assay [1] and in assay [2] were 0.3 to 1 µM and under 0.3 µM, respectively.

Take `CC(C)=Cc1c(C(=O)N2CCNCC2)cc(-c2nc(-c3ccc(Cl)cc3)cs2)c(=O)n1-c1cc(C)ccc1Cl` [Compound 357]: the IC50 in assay [1] and in assay [2] was under 0.3 µM throughout.

Take `CCc1cccc(CC)c1-n1c(C=C(C)C)c(C(=O)N2CCNC(=O)C2)cc(-c2nc(-c3ccc(Cl)cc3)cs2)c1=O` [Compound 358]: the IC50 in assay [1] and in assay [2] was under 0.3 µM in each case.

Regarding `CC(C)=Cc1c(C(=O)N2CCNCC2)cc(-c2nc(-c3ccc(Cl)cc3)cs2)c(=O)n1-c1cc(Cl)ccc1Cl` [Compound 359], the IC50 in assay [1] and in assay [2] was under 0.3 µM in each case.

For `CN1CCN(Cc2ccc(-n3c4c(cc(-c5nc(-c6ccc(Cl)cc6)cs5)c3=O)C(=O)CCC4)cc2)CC1` [Compound 360], the IC50 in assay [1] and in assay [2] was over 20 µM in each case.

With `COc1ncc(F)cc1-n1c(C=C(C)C)c(C(=O)N2CCNCC2)cc(-c2nc(-c3ccc(Cl)cc3)cs2)c1=O` [Compound 361], the IC50 in assay [1] and in assay [2] was under 0.3 µM in each case.

Take `CCc1cccc(CC)c1-n1c(C=C(C)C)c(C(=O)N2CCNCC2)cc(-c2nn(-c3ccc(Cl)cc3)cc2Br)c1=O` [Compound 363]: the IC50 in assay [1] was in the range of 1 to 5 µM; in assay [2], 5 to 20 µM.

Consider `COc1ccc(Cl)c(-n2c(CC(C)C)c(C(=O)N3CCNCC3)cc(-c3nc(-c4ccc(Cl)cc4)cs3)c2=O)c1` [Compound 364], for which the IC50 is under 0.3 µM in assay [1] and 0.3 to 1 µM in assay [2].

Consider `CCc1cccc(CC)c1-n1c(CC2CCNCC2)c(C(=O)NC)cc(-c2nc(-c3ccc(Cl)cc3)cs2)c1=O` [Compound 365], for which the IC50 in assay [1] and in assay [2] was 5 to 20 µM throughout.

Take `CCc1cccc(CC)c1-n1c(C=C(C)C)c(C(=O)N2CCNCC2(C)C)cc(-c2nc(-c3ccc(Cl)cc3)cs2)c1=O` [Compound 366]: the IC50 in assay [1] and in assay [2] was under 0.3 µM in each case.

`CC(C)=Cc1c(C(=O)N2CCNCC2)cc(-c2nc(-c3ccc(Cl)cc3)cs2)c(=O)n1-c1c(Cl)cccc1OC(C)C` [Compound 367]: the IC50 in assay [1] and in assay [2] was under 0.3 µM each time.

Take `O=C1CCCc2c1cc(-c1nc(-c3ccc(Cl)cc3)cs1)c(=O)n2-c1ccncc1` [Compound 368]: the IC50 in assay [1] and in assay [2] was over 20 µM throughout.

Turning to `CC1(C)CC(=O)c2cc(-c3nc(-c4ccc(Cl)cc4)cs3)c(=O)n(-c3sccc3C(N)=O)c2C1` [Compound 369], the IC50 in assay [1] and in assay [2] was 5 to 20 µM each time.

As for `CCc1cccc(CC)c1-n1c(C=C(C)C)c(C(=O)N2CCNC(C)C2)cc(-c2nc(-c3ccc(Cl)cc3)cs2)c1=O` (centres unmarked) [Compound 370], the IC50 in assay [1] and in assay [2] was under 0.3 µM each time.

Consider `CCc1cccc(CC)c1-n1c(C=C(C)C)c(C(=O)N2CCNC(CCO)C2)cc(-c2nc(-c3ccc(Cl)cc3)cs2)c1=O` (centres unmarked) [Compound 371], for which the IC50 in assay [1] and in assay [2] was under 0.3 µM in each case.

On to `CC(C)=Cc1c(C(=O)N2CCNCC2)cc(-c2nc(-c3ccc(Cl)cc3)cs2)c(=O)n1-c1ccccc1C(C)(C)C` [Compound 372], for which the IC50 in assay [1] and in assay [2] was under 0.3 µM in each case.

Take `CCc1cccc(CC)c1-n1c(CCC(F)(F)F)c(C(=O)N2CCNCC2)cc(-c2nc(-c3ccc(Cl)cc3)cs2)c1=O` [Compound 373]: the IC50 in assay [1] and in assay [2] was 0.3 to 1 µM in each case.

For the molecule `CCOc1cccc(Cl)c1-n1c(C=C(C)C)c(C(=O)N2CCNCC2)cc(-c2nc(-c3ccc(Cl)cc3)cs2)c1=O` [Compound 374], the IC50 in assay [1] and in assay [2] was under 0.3 µM each time.

In the case of `COc1cccc(C)c1-n1c2c(cc(-c3nc(-c4ccc(Cl)cc4)cs3)c1=O)C(=O)CCC2` [Compound 375], the IC50 in assay [1] and in assay [2] was 1 to 5 µM throughout.

As for `CCOc1ccc(F)cc1-n1c(C=C(C)C)c(C(=O)N2CCNCC2)cc(-c2nc(-c3ccc(C(F)F)cc3)cs2)c1=O` [Compound 376], the IC50 in assay [1] and in assay [2] was under 0.3 µM throughout.

As for `CCc1cccc(CC)c1-n1c(C=C(C)C)c(C(=O)N2CCNCC2)cc(-c2nc(-c3ccc(Cl)cn3)cs2)c1=O` [Compound 377], the IC50 in assay [1] and in assay [2] was under 0.3 µM throughout.

On to `CCOc1ccc(Cl)cc1-n1c(C=C(C)C)c(C(=O)N2CCNCC2)cc(-c2nc(-c3ccc(C(F)F)cc3)cs2)c1=O` [Compound 378], for which the IC50 in assay [1] and in assay [2] was under 0.3 µM each time.

For the molecule `CCc1ccc(F)cc1-n1c(C=C(C)C)c(C(=O)N2CCNCC2)cc(-c2nc(-c3ccc(C(F)F)cc3)cs2)c1=O` [Compound 379], the IC50 in assay [1] and in assay [2] was under 0.3 µM each time.

`COc1ccc(OC)c(-n2c(C=C(C)C)c(C(=O)N3CCNCC3)cc(-c3nc(-c4ccc(Cl)cc4)cs3)c2=O)c1` [Compound 380]: the IC50 in assay [1] and in assay [2] was under 0.3 µM each time.

With `CCOc1ccc(F)cc1-n1c(C=C(C)C)c(C(=O)N2CCNCC2)cc(-c2nc(-c3ccc(Cl)cc3)cs2)c1=O` [Compound 381], the IC50 in assay [1] and in assay [2] was under 0.3 µM each time.

With `Cn1nccc1-n1c2c(cc(-c3nc(-c4ccc(Cl)cc4)cs3)c1=O)C(=O)CC(C)(C)C2` [Compound 382], the results for the IC50 in assay [1] and in assay [2] were 5 to 20 µM and 1 to 5 µM, respectively.

`COc1ccc(C(F)(F)F)cc1-n1c(C=C(C)C)c(C(=O)N2CCNCC2)cc(-c2nc(-c3ccc(Cl)cc3)cs2)c1=O` [Compound 383]: the IC50 in assay [1] and in assay [2] was 0.3 to 1 µM each time.

On to `CC(C)=Cc1c(C(=O)N2CCNCC2)cc(-c2nc(-c3ccc(Cl)cc3)cs2)c(=O)n1-c1c(Cl)cccc1Cl` [Compound 384], for which the IC50 in assay [1] and in assay [2] was under 0.3 µM each time.

Turning to `CCc1cccc(CC)c1-n1c(CC(C)C)c(C(=O)N2CCNCC2)cc(-c2nc(-c3ccc(Cl)cc3)c(C3CC3)s2)c1=O` [Compound 385], the IC50 in assay [1] was 0.3 to 1 µM; in assay [2] it was under 0.3 µM.

Consider `CCOc1ccc(C)cc1-n1c(C=C(C)C)c(C(=O)N2CCNCC2)cc(-c2nc(-c3ccc(C(F)F)cc3)cs2)c1=O` [Compound 386], for which the IC50 in assay [1] and in assay [2] was under 0.3 µM each time.
